The source of these data is ChEMBL document CHEMBL1141312, “Induction of apoptosis by diterpenes from the soft coral Xenia elongata” (2007).

Calls of active or inactive are those of the source. The calls are words filed in the database; no cut-off is given here.

The subject of test [1] is W2. As to the kind of experiment: (§1) Induction of apoptosis in mouse W2 cells assessed as cell death after 48 hrs by MTT assay. It counts as functional. For orientation: Formazan colour is commonly taken as a measure of viable cells.
The nature of test [2]: as §1. Type of test: functional.
Test [3] is described as follows: Induction of apoptosis in apoptosis-resistant mouse D3 cells assessed as cell growth after 48 hrs by MTT assay. Type of test: functional.
The subject of test [4] is D3. Description: Induction of apoptosis in mouse apoptosis-resistant D3 cells assessed as cell growth at 12 uM after 48 hrs by MTT assay. Type of test: functional, cell-based.
Test [5] has as its system D3. As to the kind of experiment: Induction of apoptosis in mouse apoptosis-resistant D3 cells assessed as cell growth at 12 uM after 72 hrs by MTT assay. Type of test: functional, cell-based.

Turning to `C=C1CC/C=C(\C)CC[C@H](/C(=C\CC=C(C)C)COC(C)=O)[C@H]1C(=O)OC`, the result in test [1] was Active.

As to `C=C1CC/C=C(\C)CC[C@@H]2C(C(CC3OC3(C)C)OC(C)=O)=CO[C@H](OC(C)=O)[C@@H]12` (some centres not stated), the Activity in test [2] is 50%; in test [3], 61%. For the same compound, the result in test [4] and in test [5] was Active.

As to `C=C1CC/C=C(\C)CC[C@H](/C(=C/C=C/C(C)(C)O)COC(C)=O)[C@H]1C(=O)OC`, the result in test [1] was Active. On the same count and under the same terms, for `C=C1CC/C=C(\C)CC[C@H](/C(=C\C=C\C(C)(C)O)COC(C)=O)[C@H]1C(OC)OC` the value was “Active”.
